In test [1] the test system is NOS1−/− myocytes. As to the kind of experiment: Assessment of SR Ca2+ leakage with tetracaine, Example 2. Format: cell-based, mouse. Here is the method:
Assessment of SR Ca^2+ leakage: Calcium leakage was assessed as described by Shannon et al (Shannon T. R. et al. Circ Res 2002; 91:594-600). Ventricular myocytes were paced by field stimulation at the different frequencies in normal Tyrode until cellular Ca^2+ transients reached a steady state. After the last pulse, the superfusing solution was rapidly switched to 0Na^+-0Ca^2+(Na^+ replaced by Li^+) Tyrode with or without 1 mmol/L tetracaine. In the control condition, [Ca^2+]i was monitored while 0Na^+-0Ca^2+ Tyrode buffer was applied at least 40 seconds, rapid pulse of 10 mm/L caffeine was added to cause SR Ca^2+ release. The difference between the basal and the peak total cytosolic [Ca^2+]i in the presence of caffeine is, therefore, [Ca^2+]τ. In the test condition, 0Na^+0Ca^2+ Tyrode was applied with tetracaine. In this condition, the leakage is blocked and the difference in [Ca^2+]τ between tetracaine and control condition is diastolic leakage. To calculate [Ca^2+]τ in the SR, the total SR volume was considered 3% of the cell volume and the cytosol volume, 65% of the cell volume.

For test [2], the system named is NOS1−/− myocytes. Kind of test: SR Ca2+ leakage protocol, Example 1 (0Na/0Ca buffer, caffeine). Format: cell-based, mouse. Here is the method: The hearts were cannulated and perfused trough the aorta with Ca^2+-free bicarbonate buffer containing (in mM) 120 NaCl, 5.4 KCl, 1.2 MgSO4, 1.2 NaH2PO4, 5.6 glucose, 20 NaHCO3, 10 2,3-butanedione monoxime (BDM; Sigma), and 5 taurine (Sigma), gassed with 95% O2-5% CO2, followed by enzymatic digestion with collagenase type 2 (1 mg/ml; Worthington) and protease type XIV (0.1 mg/ml; Sigma). Ventricular myocytes were obtained by mechanical disruption of digested hearts, filtration, centrifugation, and resuspension in a Tyrode solution containing (in mM) 0.125 mM CaCl2 144 NaCl, 1 MgCl2, 10 HEPES, 5.6 Glucose, 1.2 NaHPO4, 5 KCl, adjusted to a pH of 7.4 with NaOH. Then, the Ca^2+ content of the buffer was increased in steps until reaching 1.8 mM.
Myocytes were incubated with 5 μmol/L fura-2/AM (Molecular Probes, Eugene, Oreg.) then transferred to a Lucite chamber on the stage of an inverted microscope (Nikon TE 200), continuously superfused with Tyrode solution. Sarcomere length (SL) and Ca^2+ transients ([Ca^2+]i) were measured in myocytes stimulated at 1, 2, 4, 6 and 8 Hz. All experiments were conducted at 37° C.
Calcium leakage was assessed as described by Shannon et al (Shannon, T. R. et al., 2002. Circ. Res. 91:594-600). Ventricular myocytes were paced by field stimulation at the different frequencies in normal Tyrode until cellular Ca^2+ transients reached a steady state. After the last pulse, the superfusing solution was rapidly switched to 0Na^+-0Ca^2+ (Na^+ replaced by Li^+) Tyrode with or without 1 mmol/L tetracaine. In the control condition, [Ca^2+]i was monitored while 0Na^+-0Ca^2+ Tyrode buffer was applied at least 40 seconds, then a rapid pulse of 10 mm/L caffeine was added to cause SR Ca^2+ release. The difference between the basal and the peak total cytosolic [Ca^2+]i in the presence of caffeine is therefore [Ca^2+]T. In the test condition, 0Na+0Ca^2+ Tyrode was applied with tetracaine. In this condition, the leakage is blocked and the difference in [Ca^2+]T between tetracaine and control condition corresponds to diastolic leakage. […]

The subject of the next test is NOS1−/− cardiomyocytes. Kind of test: Sarcoplasmic reticulum Ca2+ stores by rapid caffeine infusion. The following applies: for Sarcoplasmic reticulum Ca2+ content (% [Ca2+]i, percent change from baseline): NOS1−/− cardiomyocytes, 4 Hz, caffeine 10 mmol/L, untreated NOS1−/− 13.7±3.1%; for Ca2+ reserves: NOS1−/− myocytes at 4 Hz.
In another test the test system is wt myocytes. As to the kind of experiment: Force-frequency response: sarcomere shortening and calcium transients. Format: cell-based, mouse. The following applies: hydralazine 0.01, nitroglycerin 0.01, DETA/NO 0.1 mmol/L, 5 minutes incubation. Here is the method:
(§1) Isolated Myocytes Preparation: Cardiac myocytes were isolated and prepared from mouse hearts as described in detail by Khan et al. (Khan S. A. et al. Circ Res 2003;92:1322-1329). Sarcomere length (SL) and [Ca^2+]i were measured simultaneously in myocytes stimulated at 1, 2, 4, 6 and 8 Hz. […] All experiments were conducted at 37° C. SL was recorded with an IonOptix iCCD camera. Change in average SL was determined by Fast Fourier Transform analysis of the Z-line density trace to the frequency domain, and SL Shortening was calculated as follows: (diastolic SL—systolic SL)/diastolic SL. Intracellular calcium, was measured using the Ca^2+-sensitive dye Fura-2 and a dual-excitation spectrofluorometer (IonOptix), alternately excited with a xenon lamp at wavelengths of 365 and 380 nm The emission fluorescence was reflected through a barrier filter (510±15 nm) to a photomultiplier tube. The Fura-2 fluorescence ratio, i.e., the ratio of the photon live count detected by the excitation at 365 nm compared with 380 nm, represents [Ca^2]i.

In test [3] the test system is NOS1−/− myocytes. Described as above. Type of test: cell-based, mouse. As to conditions: hydralazine 0.01, nitroglycerin 0.01, DETA/NO 0.1 mmol/L, 5 minutes incubation. How it is done: as §1
Test [4] concerns the target T1, xanthine oxidoreductase (XOR) (Mus musculus, UniProt Q00519).
T1 construct: NOS 1^−/− cardiac homogenates as source of the enzyme; from tissue; host or cells: heart homogenate of NOS1-/- mice, passed through Sephadex G-25
As to the kind of experiment: Xanthine oxidoreductase activity, Amplex red superoxide production in heart homogenates. Type of test: biochemical. How it is done: (§2) Xanthine Oxidoreductase activity: XOR activity was investigated by measuring uric acid and superoxide production. Heart homogenates were passed through a Sephadex G-25 column (GE Healthcare, Piscataway, N.J.) and XOR-dependent superoxide production was measured using Amplex red (Molecular Probes, Eugene, Oreg.) (0.05 mmol/L), horseradish peroxidase (HRP, 0.2 U/ml) and xanthine (0.1 mmol/L). In the assay, xanthine oxidase catalyzes the oxidation of xanthine to uric acid and superoxide. Superoxide spontaneously degrades to hydrogen peroxide (H2O2), and this, in the presence of HRP, reacts with Amplex Red to generate resurofin. Resurofin fluorescence was measured at 590 nm with excitation at 530-560 nm In parallel, the processed effluent was assessed spectrophotometrically at 295 nm for uric acid. The reaction mixture in 50 mM phosphate buffer, pH 7.4, contained 50 μl of the effluent, EDTA-Na2 (1 mmol/L), xanthine (0.2 mmol/L). […] The obtained values were plotted against a standard curve with known concentrations of XOR.

The subject of test [5] is NADPH oxidase (NOX). Kind of test: NOX-dependent superoxide production, lucigenin chemiluminescence in heart homogenates. Format: biochemical, mouse. The following applies: NOS1−/− cardiac homogenates. Here is the method: NOX-dependent superoxide production: NADPH-dependent superoxide production was measured in heart homogenates using lucigenin (5 μmol/L)-enhanced chemiluminescence (β-NADPH 300 μmol/L; room temperature) on a microplate luminometer (Veritas, Turner Biosystems, Sunnyvale, Calif.). Briefly, proteins were diluted in modified Krebs-HEPES buffer. NADPH and lucigenin were added to wells just before reading. Chemiluminescence readings were expressed as integrated light units. […] Experiments also were performed in the presence of the flavoprotein inhibitor diphenyleneiodonium (DPI, 0.01 mmol/L).

In test [6] the target is NADPH oxidase (NOX). As to the kind of experiment: NADPH oxidase dependent ONOO− production, APF fluorescence in heart homogenates. Format: biochemical, mouse. As to conditions: NOS1−/− heart extracts, NADPH 0.3 mmol/L; read-out: IC50, NOX-dependent peroxynitrite production. How it is done: NADPH oxidase dependent and XOR dependent ONOO— production: NADPH oxidase and XOR dependent ONOO— production was measured in heart homogenates using p-aminophenyl fluorescein (APF) as indicator. Proteins were diluted in modified Krebs-HEPES buffer and incubated with NADPH or xanthine for 30 minutes at 37° C. APF was added just before the fluorescence readings, measuring at 515 nm with excitation at 490 nm.

In test [7] the target is T1, xanthine oxidoreductase (XOR). As to the kind of experiment: Xanthine oxidoreductase activity, uric acid production in heart homogenates. Type of test: biochemical. As to conditions: NOS1−/− cardiac homogenates, xanthine 0.2 mmol/L. How it is done:
as §2

The mark [8] stands for this setting: 100 μM, paced at 4 Hz, NOS1−/− myocytes.

These results are taken from US20100316622A1, “DIAGNOSIS AND TREATMENT OF CARDIAC DISORDERS” (UNIVERSITY OF MIAMI, priority 2007, published 2010).

Where two headings read alike, the source gives them in different places.

T1 sequence (Q00519 whole entry): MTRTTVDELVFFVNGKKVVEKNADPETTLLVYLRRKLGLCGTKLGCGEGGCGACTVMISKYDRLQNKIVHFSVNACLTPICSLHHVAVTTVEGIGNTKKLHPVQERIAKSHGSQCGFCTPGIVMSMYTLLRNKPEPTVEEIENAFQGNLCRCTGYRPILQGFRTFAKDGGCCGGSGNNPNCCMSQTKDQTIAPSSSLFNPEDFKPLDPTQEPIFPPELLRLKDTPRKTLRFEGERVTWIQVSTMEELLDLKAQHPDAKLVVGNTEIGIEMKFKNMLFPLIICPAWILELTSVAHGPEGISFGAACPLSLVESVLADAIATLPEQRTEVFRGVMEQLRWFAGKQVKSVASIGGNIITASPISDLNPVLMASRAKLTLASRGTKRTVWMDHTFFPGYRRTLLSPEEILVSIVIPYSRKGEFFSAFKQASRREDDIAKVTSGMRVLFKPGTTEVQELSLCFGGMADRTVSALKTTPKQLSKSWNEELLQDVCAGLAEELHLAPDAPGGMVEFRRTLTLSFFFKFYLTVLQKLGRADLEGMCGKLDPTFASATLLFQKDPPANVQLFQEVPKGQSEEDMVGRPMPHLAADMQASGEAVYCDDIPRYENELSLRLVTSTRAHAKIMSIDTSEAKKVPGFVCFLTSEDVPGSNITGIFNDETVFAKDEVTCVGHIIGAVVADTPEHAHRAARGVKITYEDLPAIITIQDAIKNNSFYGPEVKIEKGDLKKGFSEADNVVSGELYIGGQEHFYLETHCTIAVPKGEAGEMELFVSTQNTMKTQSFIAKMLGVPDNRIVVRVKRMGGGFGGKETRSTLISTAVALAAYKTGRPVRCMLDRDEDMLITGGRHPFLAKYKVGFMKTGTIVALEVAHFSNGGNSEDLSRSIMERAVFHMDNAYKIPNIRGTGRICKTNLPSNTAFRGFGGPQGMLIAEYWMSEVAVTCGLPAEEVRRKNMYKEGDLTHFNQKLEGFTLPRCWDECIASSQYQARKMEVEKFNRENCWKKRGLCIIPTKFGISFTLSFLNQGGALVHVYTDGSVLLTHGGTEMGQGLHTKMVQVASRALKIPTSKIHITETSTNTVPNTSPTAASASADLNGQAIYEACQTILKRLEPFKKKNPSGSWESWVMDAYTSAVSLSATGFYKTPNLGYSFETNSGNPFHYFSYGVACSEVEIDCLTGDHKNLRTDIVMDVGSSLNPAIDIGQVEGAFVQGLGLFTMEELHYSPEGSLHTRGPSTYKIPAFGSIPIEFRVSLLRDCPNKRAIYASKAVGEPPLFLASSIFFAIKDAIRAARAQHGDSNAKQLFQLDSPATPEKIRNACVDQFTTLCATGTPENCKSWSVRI
Method for NOS1−/− cardiomyocytes: In order to assess calcium stores, caffeine (10 mmol/L) was rapidly infused after a 10 second pause following steady-state pacing at 1 and 4 Hz. In order to calculate the [Ca^2+]i of caffeine pulse was normalized as follows:
([Ca^2+]i at caffeine−[Ca^2+]i at pacing)/[Ca^2+]i at pacing×100.
Experiments were then repeated after incubating the cells with previously mentioned drugs.

For `CCCCNc1ccc(C(=O)OCCN(C)C)cc1` [tetracaine], the “spontaneous Ca2+ waves” value in the test on NOS1−/− myocytes [1] (tetracaine 1 mmol/L) is recorded as “abolished”. For the same compound, the “spontaneous Ca2+ transients (waves) during 0Na+/0Ca2+ treatment” value in the test with NOS1−/− myocytes [2] (NOS1−/− and NOS3/NOS1−/− myocytes, 1 mmol/L tetracaine) is on record as “abolished”.
With `NCCN(CCN)/[N+]([O-])=N/O` [DETA/NO, diethylenetriamine/nitric oxide adduct], in the test with NOS1−/− myocytes [2] (setting [8]), the SR content result was “increased” and the “diastolic Ca2+ waves” value is “did not reduce”. Further, in the test on NOS1−/− cardiomyocytes, the “Sarcoplasmic reticulum Ca2+ content (% [Ca2+]i, percent change from baseline)” value turned out to be 42.8±6.5% and the “Ca2+ reserves” value is given as “increased”. In addition, the “sarcomere shortening or calcium transients” value with wt myocytes is listed as “no effect”. For the same compound, in the test with NOS1−/− myocytes [3], the “suppressed SL and [Ca2+]i responses” value is listed as “restored towards levels similar to WT”.
As usually defined, the IC50 is the concentration that gives 50% inhibition. `NNc1nncc2ccccc12` [hydralazine]: the IC50 in [4] (NOS1−/− cardiac homogenates, xanthine 0.1 mmol/L, read-out: IC50, Amplex red XOR activity) was determined as 700 ± 300 µM. In addition, the “Sarcoplasmic reticulum Ca2+ content (% [Ca2+]i, percent change from baseline)” value with NOS1−/− cardiomyocytes is listed as 49.2±16.3%. In addition, the “sarcomere shortening or calcium transients” value with wt myocytes is on record as “no effect”.
In the case of `O=[N+]([O-])OCC(CO[N+](=O)[O-])O[N+](=O)[O-]` [nitroglycerin], in the test on NADPH oxidase (NOX) [5], the “concentration that decreased NOX activity / NOX dependent superoxide production” value was above 0.01 mmol/L. Further, the IC50 against NADPH oxidase (NOX) [5] (NADPH 0.3 mmol/L) is 13 µM; on NADPH oxidase (NOX) [6] it was 1300 ± 400 µM; in [4] it was 1000 ± 400 µM. In addition, the “Diastolic Ca2+ leak, drug alone” value in the test with NOS1−/− myocytes [1] (nitroglycerin 10 μmol/L, hydralazine 100 μmol/L) is on record as “not abolished”. For the same compound, the “Sarcoplasmic reticulum Ca2+ content (% [Ca2+]i, percent change from baseline)” value in the test with NOS1−/− cardiomyocytes was 42.8±6.5%. The “Ca2+ reserves” value in the test with NOS1−/− cardiomyocytes is “increased”. Besides, in the test on wt myocytes, the “sarcomere shortening or calcium transients” value was “no effect”. The “suppressed SL and [Ca2+]i responses” value in the test with NOS1−/− myocytes [3] was “restored towards levels similar to WT”. For the same compound, the “XOR enzyme activity (uric acid conversion)” value in test [7] is “did display XOR-inhibitory activity”.
